Among the data in patent publication EP3807270B1, “NOVEL HETEROARYL HETEROCYCLYL COMPOUNDS FOR THE TREATMENT OF AUTOIMMUNE DISEASE” (F. Hoffmann-La Roche AG, priority 2018, dated 2019) are IC50 values, retold here.

This experiment has as its target T1, human TLR8 (Homo sapiens, UniProt Q9NR97).
T1 construct: host or cells: HEK293 (HEK-Blue)
T1 sequence (Q9NR97 27-1041): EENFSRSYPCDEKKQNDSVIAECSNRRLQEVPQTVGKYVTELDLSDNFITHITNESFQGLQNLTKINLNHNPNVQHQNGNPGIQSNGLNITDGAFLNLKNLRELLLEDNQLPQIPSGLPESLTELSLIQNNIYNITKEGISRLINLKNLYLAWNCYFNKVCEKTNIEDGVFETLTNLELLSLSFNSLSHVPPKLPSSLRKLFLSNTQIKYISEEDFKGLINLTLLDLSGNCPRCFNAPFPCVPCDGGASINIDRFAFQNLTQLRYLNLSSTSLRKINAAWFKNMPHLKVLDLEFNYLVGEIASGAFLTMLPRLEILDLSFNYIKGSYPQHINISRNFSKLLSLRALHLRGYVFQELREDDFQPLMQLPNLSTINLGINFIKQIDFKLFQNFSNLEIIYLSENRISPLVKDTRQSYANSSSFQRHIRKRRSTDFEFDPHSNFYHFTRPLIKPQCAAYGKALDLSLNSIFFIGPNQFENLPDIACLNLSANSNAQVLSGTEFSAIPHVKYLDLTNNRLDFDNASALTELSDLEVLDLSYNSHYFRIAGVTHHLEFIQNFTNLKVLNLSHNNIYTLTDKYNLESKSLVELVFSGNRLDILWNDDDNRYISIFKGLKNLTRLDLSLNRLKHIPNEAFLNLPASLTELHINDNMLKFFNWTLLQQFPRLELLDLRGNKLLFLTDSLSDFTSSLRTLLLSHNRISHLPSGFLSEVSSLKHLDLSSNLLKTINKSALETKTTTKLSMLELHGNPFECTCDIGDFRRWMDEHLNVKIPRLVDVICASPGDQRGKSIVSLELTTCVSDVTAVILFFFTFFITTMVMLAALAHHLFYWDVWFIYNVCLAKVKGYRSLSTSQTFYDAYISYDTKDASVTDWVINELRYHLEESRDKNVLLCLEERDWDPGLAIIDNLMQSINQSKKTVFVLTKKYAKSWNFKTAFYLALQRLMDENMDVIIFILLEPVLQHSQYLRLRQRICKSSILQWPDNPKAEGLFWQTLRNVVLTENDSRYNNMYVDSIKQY
Briefly: HEK293-Blue-hTLR-8 cells assay (SEAP reporter, R848 stimulation). Format: cell-based. The note with it: HEK293-Blue-hTLR8 cells, R848, 20 hrs; read-out: HEK/hTLR8 IC50. Put shortly: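 HEK293-Blue-hTLR8 cells (NF-κB/AP-1-driven SEAP) in DMEM/10% FBS were treated with serially diluted compound (1% DMSO final) plus R848 for 20 hrs at 37 °C. Supernatant SEAP was measured with QUANTI-Blue after 2 hrs at 37 °C, absorbance 620-655 nm; antagonism seen as reduced reporter.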

As for `C[C@@H]1CN(c2ccc(C#N)c3nccnc23)C[C@H](CN2CCN(c3cc4c(cn3)[C@@H](C)NCC4)CC2)O1` (single isomer, unassigned) [Example 86], the IC50 was 2 nM.

On to `C[C@@H]1CN(c2ccc(C#N)c3nccnc23)C[C@H](CN2CCN(c3cc4c(cn3)CCN[C@@H]4C)CC2)O1` (single isomer, unassigned) [Example 87], for which the IC50 was determined as 2 nM.

Turning to `C[C@@H]1CN(c2ccc(C#N)c3nccnc23)C[C@H](CN2CCN(c3cc4c(cn3)CCN[C@H]4C)CC2)O1` (single isomer, unassigned) [Example 88], the IC50 worked out at 2 nM.

Take `[2H]c1nc2c(C#N)ccc(N3C[C@H](CN4CCN(c5cc6c(cn5)[C@H](C)NCC6)CC4)O[C@H](C)C3)c2nc1[2H]` (single isomer, unassigned) [Example 94]: the IC50 is 2 nM.

Consider `[2H]c1nc2c(C#N)ccc(N3C[C@H](CN4CCN(c5cc6c(cn5)[C@@H](C)NCC6)CC4)O[C@H](C)C3)c2nc1[2H]` (single isomer, unassigned) [Example 95], for which the IC50 stood at 3 nM.

As to `[2H]c1nc2c(C#N)ccc(N3C[C@H](CN4CCN(c5ccc6c(n5)CN[C@H]6C)CC4)O[C@H](C)C3)c2nc1[2H]` (single isomer, unassigned) [Example 96], the IC50 was found to be 3 nM.

Take `[2H]c1nc2c(C#N)ccc(N3C[C@H](CN4CCN(c5ccc6c(n5)CN[C@@H]6C)CC4)O[C@H](C)C3)c2nc1[2H]` (single isomer, unassigned) [Example 97]: the IC50 is 4 nM.

Regarding `[2H]c1ccc2c(N3C[C@H](CN4CCN(c5ccc6c(n5)CN[C@@H]6C)CC4)O[C@H](C)C3)ccc(C#N)c2n1` (single isomer, unassigned) [Example 98], the IC50 was 5 nM.

In the case of `[2H]c1ccc2c(N3C[C@H](CN4CCN(c5ccc6c(n5)CN[C@H]6C)CC4)O[C@H](C)C3)ccc(C#N)c2n1` (single isomer, unassigned) [Example 99], the IC50 was determined as 5 nM.

`C[C@@H]1CN(c2ccc(C#N)c3ncccc23)C[C@H](CN2CCN(c3ccc4c(c3)CNCC4)CC2)O1` [Example 9, 5-[(2R,6S)-2-methyl-6-[[4-(1,2,3,4-tetrahydroisoquinolin-7-yl)piperazin-1-yl]methyl]morpholin-4-yl]quinoline-8-carbonitrile]: the IC50 was 15 nM.

In the case of `C[C@@H]1CN(c2ccc(C#N)c3ncccc23)C[C@H](CN2CCN(c3cnc4c(c3)CNC4)CC2)O1` [Example 10, 5-[(2S,6R)-2-[[4-(6,7-dihydro-5H-pyrrolo[3,4-b]pyridin-3-yl)piperazin-1-yl]methyl]-6-methyl-morpholin-4-yl] quinoline-8-carbonitrile], the IC50 is 23 nM.
